Source: patent publication US12281122B1, “PI3K inhibitors” (Cogent Biosciences, Inc., priority 2023, dated 2025)

Tests used:
[1] = system: T47D (PI3Kα-H1047R) cell line; test: HTRF phospho-AKT(S473) cell assay in T47D cells; type: cell-based, human; conditions: Homo sapiens, 2 hours compound incubation
Procedure, shortened: (§1)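 T47D: RPMI + 10% FBS + 0.2 units/mL insulin, top 5 μM. SKBR3: McCoy's 5A + 10% FBS, top 10 μM, 70 ng/ml PDGF-BB last 15 min. Both: 12-pt 1:3, 2 h, 37° C, max 0.5% DMSO; HTRF pAKT(S473); IC50.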

[2] = system: SKBR3 (PI3Kα-Wild Type) cell line; test: HTRF phospho-AKT(S473) cell assay in SKBR3 cells; type: cell-based, human; conditions: Homo sapiens, SK-BR-3, 2 hours compound incubation, PDGF-BB stimulated
Procedure, shortened: as §1

[3] = T47D (PI3Kα-H1047R) cells, HTRF phospho-AKT(S473)
[4] = SKBR3 (PI3Kα-Wild Type) cells, HTRF phospho-AKT(S473)
[5] = HTRF phospho-AKT(S473), T47D (PI3Kα-H1047R) cells
[6] = HTRF phospho-AKT(S473), SKBR3 (PI3Kα-Wild Type) cells

IC50 [1, 5] [nM] | IC50 [2, 6] [nM] | Structure (SMILES) | further results
 |  | Cc1cc([C@@H](C)Nc2ccc(Cl)nc2C(=O)NS(C)(=O)=O)c2nc(N3C[C@@H]4C[C@H]3CN4c3cnn(C)c3)n(C)c(=O)c2c1 [Compound 201, 6-chloro-3-(((R)-1-(3,6-dimethyl-2-((1S,4S)-5-(1-methyl-1H-pyrazol-4-yl)-2,5-diazabicyclo[2.2.1]heptan-2-yl)-4-oxo-3,4-dihydroquinazolin-8-yl)ethyl)amino)-N-(methylsulfonyl) picolinamide] | IC50 [1, 3]: < 250 nM; IC50 [2, 4]: 1000 to 5000 nM
250 to 500 | ≥ 5000 | Cc1cc([C@@H](C)Nc2ccc(Cl)nc2C(=O)NS(C)(=O)=O)c2nc(N3CCC[C@@H](c4cnc(C)cn4)C3)n(C)c(=O)c2c1 (relative stereo) [Compound 586, 6-chloro-3-(((R)-1-(3,6-dimethyl-2-((R*)-3-(5-methylpyrazin-2-yl)piperidin-1-yl)-4-oxo-3,4-dihydroquinazolin-8-yl)ethyl)amino)-N-(methylsulfonyl) picolinamide] | 
 |  | Cc1cc([C@@H](C)Nc2ccc(Cl)nc2C(=O)NS(C)(=O)=O)c2nc(-c3ccc4nn(-c5ncccn5)cc4c3)n(C)c(=O)c2c1 [Compound 850, (R)-6-chloro-3-((1-(3,6-dimethyl-4-oxo-2-(2-(pyrimidin-2-yl)-2H-indazol-5-yl)-3,4-dihydroquinazolin-8-yl)ethyl)amino)-N-(methylsulfonyl) picolinamide] | IC50 ([1]; T47D (PI3Kα-H1047R) cell line, phospho-AKT(S473) HTRF): < 250 nM; IC50 ([2]; SKBR3 (PI3Kα-Wild Type) cell line, phospho-AKT(S473) HTRF): 1000 to 5000 nM
500 to 1000 | ≥ 5000 | Cc1ccc(N2C[C@H]3C[C@@H]2CN3c2nc3c([C@@H](C)Nc4ccc(Cl)nc4C(=O)NS(C)(=O)=O)cc(C)cc3c(=O)n2C)nc1 [Compound 609, 6-chloro-3-(((R)-1-(3,6-dimethyl-2-((1R,4R)-5-(5-methylpyridin-2-yl)-2,5-diazabicyclo [2.2.1]heptan-2-yl)-4-oxo-3,4-dihydroquinazolin-8-yl)ethyl)amino)-N-(methylsulfonyl) picolinamide] | 
 |  | Cc1cc([C@@H](C)Nc2ccc(Cl)nc2C(=O)NS(C)(=O)=O)c2nc(N3CCC[C@@H](Oc4cnccn4)C3)n(C)c(=O)c2c1 [Compound 375, 6-chloro-3-(((R)-1-(3,6-dimethyl-4-oxo-2-((R)-3-(pyrazin-2-yloxy)piperidin-1-yl)-3,4-dihydroquinazolin-8-yl)ethyl)amino)-N-(methylsulfonyl) picolinamide] | IC50 [1, 3]: 250 to 500 nM; IC50 [2, 4]: ≥ 5000 nM
250 to 500 | 1000 to 5000 | COc1ccc(N2CCN(c3nc4c([C@@H](C)Nc5ccc(Cl)nc5C(=O)NS(C)(=O)=O)cc(C)cc4c(=O)n3C)CC2)cn1 [Compound 635, (R)-6-chloro-3-((1-(2-(4-(6-methoxypyridin-3-yl)piperazin-1-yl)-3,6-dimethyl-4-oxo-3,4-dihydroquinazolin-8-yl)ethyl)amino)-N-(methylsulfonyl) picolinamide] | 
250 to 500 | ≥ 5000 | Cc1cc([C@@H](C)Nc2ccc(Cl)nc2C(=O)NS(C)(=O)=O)c2nc(N3C[C@H]4C[C@@H]3CN4c3cnc(C)cn3)n(C)c(=O)c2c1 [Compound 577, 6-chloro-3-(((R)-1-(3,6-dimethyl-2-((1R,4R)-5-(5-methylpyrazin-2-yl)-2,5-diazabicyclo[2.2.1]heptan-2-yl)-4-oxo-3,4-dihydroquinazolin-8-yl)ethyl)amino)-N-(methylsulfonyl) picolinamide] | 
250 to 500 | ≥ 5000 | Cc1cc([C@@H](C)Nc2ccc(Cl)nc2C(=O)NS(C)(=O)=O)c2nc(N3CC[C@H](Nc4ncc(F)cn4)C3)n(C)c(=O)c2c1 [Compound 737, 6-chloro-3-(((R)-1-(2-((S)-3-((5-fluoropyrimidin-2-yl)amino)pyrrolidin-1-yl)-3,6-dimethyl-4-oxo-3,4-dihydroquinazolin-8-yl)ethyl)amino)-N-(methylsulfonyl) picolinamide] | 
< 250 | 1000 to 5000 | COc1cc([C@H]2[C@@H]3CN(c4nc5c([C@@H](C)Nc6ccc(Cl)nc6C(=O)NS(C)(=O)=O)cc(C)cc5c(=O)n4C)C[C@@H]32)n(C)n1 [Compound 519, 6-chloro-3-(((R)-1-(2-((1R,5S,6R)-6-(3-methoxy-1-methyl-1H-pyrazol-5-yl)-3-azabicyclo[3.1.0]hexan-3-yl)-3,6-dimethyl-4-oxo-3,4-dihydroquinazolin-8-yl)ethyl)amino)-N-(methylsulfonyl) picolinamide] | 
 |  | COc1cn(C)nc1C1CCN(c2nc3c([C@@H](C)Nc4ccc(Cl)nc4C(=O)NS(C)(=O)=O)cc(C)cc3c(=O)n2C)CC1 [Compound 316, (R)-6-chloro-3-((1-(2-(4-(4-methoxy-1-methyl-1H-pyrazol-3-yl)piperidin-1-yl)-3,6-dimethyl-4-oxo-3,4-dihydroquinazolin-8-yl)ethyl)amino)-N-(methylsulfonyl) picolinamide] | IC50 [1, 3]: 250 to 500 nM; IC50 [2, 4]: 1000 to 5000 nM
250 to 500 | 1000 to 5000 | Cc1cc([C@@H](C)Nc2ccc(Cl)nc2C(=O)NS(C)(=O)=O)c2nc(C3CCN(c4ccccc4)CC3)n(C)c(=O)c2c1 [Compound 831, (R)-6-chloro-3-((1-(3,6-dimethyl-4-oxo-2-(1-phenylpiperidin-4-yl)-3,4-dihydroquinazolin-8-yl)ethyl)amino)-N-(methylsulfonyl) picolinamide] | 
250 to 500 | ≥ 5000 | COc1cccc(N2CCN(c3nc4c([C@@H](C)Nc5ccc(Cl)nc5C(=O)NS(C)(=O)=O)cc(C)cc4c(=O)n3C)CC2)n1 [Compound 596, (R)-6-chloro-3-((1-(2-(4-(6-methoxypyridin-2-yl)piperazin-1-yl)-3,6-dimethyl-4-oxo-3,4-dihydroquinazolin-8-yl)ethyl)amino)-N-(methylsulfonyl) picolinamide] | 
 |  | Cc1cc([C@@H](C)Nc2ccc(Cl)nc2C(=O)NS(C)(=O)=O)c2nc(N3Cc4cn(-c5ccnn5C)nc4C3)n(C)c(=O)c2c1 [Compound 277, (R)-6-chloro-3-((1-(3,6-dimethyl-2-(2-(1-methyl-1H-pyrazol-5-yl)-2,6-dihydropyrrolo[3,4-c]pyrazol-5(4H)-yl)-4-oxo-3,4-dihydroquinazolin-8-yl)ethyl)amino)-N-(methylsulfonyl) picolinamide] | IC50 [1, 3]: < 250 nM; IC50 [2, 4]: 1000 to 5000 nM
< 250 | ≥ 5000 | Cc1cc([C@@H](C)Nc2ccc(Cl)nc2C(=O)NS(C)(=O)=O)c2nc(N3C[C@@H]4[C@H](C3)[C@H]4c3c(F)cnn3C3CC3)n(C)c(=O)c2c1 [Compound 570, 6-chloro-3-(((R)-1-(2-((1R,5S,6R)-6-(1-cyclopropyl-4-fluoro-1H-pyrazol-5-yl)-3-azabicyclo[3.1.0]hexan-3-yl)-3,6-dimethyl-4-oxo-3,4-dihydroquinazolin-8-yl)ethyl)amino)-N-(methylsulfonyl) picolinamide] | 
500 to 1000 | ≥ 5000 | COc1cc(N2C[C@H]3C[C@@H]2CN3c2nc3c([C@@H](C)Nc4ccc(Cl)nc4C(=O)NS(C)(=O)=O)cc(C)cc3c(=O)n2C)ccn1 [Compound 639, 6-chloro-3-(((R)-1-(2-((1R,4R)-5-(2-methoxypyridin-4-yl)-2,5-diazabicyclo [2.2.1]heptan-2-yl)-3,6-dimethyl-4-oxo-3,4-dihydroquinazolin-8-yl)ethyl)amino)-N-(methylsulfonyl) picolinamide] | 
< 250 | 1000 to 5000 | Cc1cc([C@@H](C)Nc2ccc(Cl)nc2C(=O)NS(C)(=O)=O)c2nc(-c3ccc4nn(C)cc4c3)n(C)c(=O)c2c1 [Compound 775, (R)-6-chloro-3-((1-(3,6-dimethyl-2-(2-methyl-2H-indazol-5-yl)-4-oxo-3,4-dihydroquinazolin-8-yl)ethyl)amino)-N-(methylsulfonyl) picolinamide] | 
250 to 500 | ≥ 5000 | COc1cc([C@H]2[C@@H]3CN(c4nc5c([C@@H](C)Nc6ccc(Cl)nc6C(=O)NS(C)(=O)=O)cc(C)cc5c(=O)n4C)C[C@@H]32)nn1C [Compound 542, 6-chloro-3-(((R)-1-(2-((1R,5S,6R)-6-(5-methoxy-1-methyl-1H-pyrazol-3-yl)-3-azabicyclo[3.1.0]hexan-3-yl)-3,6-dimethyl-4-oxo-3,4-dihydroquinazolin-8-yl)ethyl)amino)-N-(methylsulfonyl) picolinamide] | 
 |  | Cc1cc([C@@H](C)Nc2ccc(Cl)nc2C(=O)NS(C)(=O)=O)c2nc(N3CCC[C@H](Oc4cnc(C)cn4)C3)n(C)c(=O)c2c1 [Compound 383, 6-chloro-3-(((R)-1-(3,6-dimethyl-2-((S)-3-((5-methylpyrazin-2-yl)oxy)piperidin-1-yl)-4-oxo-3,4-dihydroquinazolin-8-yl)ethyl)amino)-N-(methylsulfonyl) picolinamide] | IC50 [1, 3]: 250 to 500 nM; IC50 [2, 4]: ≥ 5000 nM

Structure (SMILES) | IC50 [1, 5] [nM] | IC50 [2, 6] [nM] | further results
Cc1cc([C@@H](C)Nc2ccc(Cl)nc2C(=O)NS(C)(=O)=O)c2nc(N3[C@@H]4CC[C@H]3C[C@H](n3ncc5ccccc53)C4)n(C)c(=O)c2c1 [Compound 695, 3-(((R)-1-(2-((1R,3S,5S)-3-(1H-indazol-1-yl)-8-azabicyclo[3.2.1]octan-8-yl)-3,6-dimethyl-4-oxo-3,4-dihydroquinazolin-8-yl)ethyl)amino)-6-chloro-N-(methylsulfonyl) picolinamide] | 250 to 500 | ≥ 5000 | 
